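All cell lines were grown in 96-well plates and treated with compound for 48 hours. At the GI50, growth is halved.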 The source made the active and inactive calls. Cut-off read from the data, not from the text of the source: active = GI50 up to about 1.1 µM and inactive = higher.
What was measured:
Experiment in all cases: NCI tumour cell line growth inhibition, 48 h
786-0 = system: 786-0
A498 = system: A498
A549 = system: A549
ACHN = system: ACHN
CAKI-1 = system: CAKI-1
CCRF-CEM = system: CCRF-CEM
COLO 205 = system: COLO 205
DLD-1 = system: DLD-1
DMS-114 = system: DMS-114
DMS-273 = system: DMS-273
EKVX = system: EKVX
HCC 2998 = system: HCC 2998
HCT-116 = system: HCT-116
HCT-15 = system: HCT-15
HL-60 = system: HL-60
HOP-18 = system: HOP-18
HOP-62 = system: HOP-62
HOP-92 = system: HOP-92
HT-29 = system: HT-29
IGROV-1 = system: IGROV-1
K562 = system: K562
KM-20L2 = system: KM-20L2
KM12 = system: KM12
LOX IMVI = system: LOX IMVI
LXFL 529 = system: LXFL 529
M14 = system: M14
M19-MEL = system: M19-MEL
MOLT-4 = system: MOLT-4
Malme-3M = system: Malme-3M
NCI-H226 = system: NCI-H226
NCI-H23 = system: NCI-H23
NCI-H460 = system: NCI-H460
OVCAR-4 = system: OVCAR-4
OVCAR-5 = system: OVCAR-5
OVCAR-8 = system: OVCAR-8
RPMI-8226 = system: RPMI-8226
SF-268 = system: SF-268
SF-295 = system: SF-295
SF-539 = system: SF-539
SK-MEL-28 = system: SK-MEL-28
SK-MEL-2 = system: SK-MEL-2
SK-MEL-5 = system: SK-MEL-5
SN12C = system: SN12C
SNB-19 = system: SNB-19
SNB-75 = system: SNB-75
SNB-78 = system: SNB-78
SW-620 = system: SW-620
TK-10 = system: TK-10
UACC-257 = system: UACC-257
UACC-62 = system: UACC-62
UO-31 = system: UO-31
XF498 = system: XF498
NCI-H522 = system: NCI-H522
OVCAR-3 = system: OVCAR-3
RXF 393 = system: RXF 393
SK-OV-3 = system: SK-OV-3
SR = system: SR
U-251 = system: U-251
RXF 631 = system: RXF 631

Measured: GI50

CC(C)(C)C1CCC2c3c([nH]c4ccccc34)C3C(=O)N(c4ccc(Br)cc4)C(=O)C3C2C1 (stereo not drawn)
13.7 µM: HCT-15
inactive: 786-0 21.6 µM | A498 28.6 µM | A549 17.7 µM | ACHN 17.7 µM | CAKI-1 19.9 µM | CCRF-CEM 16.7 µM | COLO 205 11.1 µM | DLD-1 41.4 µM | DMS-114 19 µM | DMS-273 17.1 µM | EKVX 22 µM | HCT-116 32.9 µM | HL-60 13.3 µM | HOP-18 52.4 µM | HOP-62 21.6 µM | HOP-92 24.3 µM | HT-29 17.3 µM | IGROV-1 21.1 µM | K562 15.7 µM | KM-20L2 15.1 µM | KM12 22.3 µM | LOX IMVI 15.7 µM | LXFL 529 21.7 µM | M14 26.1 µM | M19-MEL 16.8 µM | MOLT-4 9.64 µM | Malme-3M 33.9 µM | NCI-H226 18.7 µM | NCI-H23 18.8 µM | NCI-H460 17.7 µM | OVCAR-4 16.9 µM | OVCAR-5 23.6 µM | OVCAR-8 21.7 µM | RPMI-8226 17.1 µM | SF-268 24.5 µM | SF-295 25 µM | SF-539 21.1 µM | SK-MEL-28 48.2 µM | SK-MEL-2 19 µM | SK-MEL-5 25.8 µM | SN12C 11.4 µM | SNB-19 16.9 µM | SNB-75 19.5 µM | SNB-78 26.4 µM | SW-620 19.8 µM | TK-10 20.5 µM | UACC-257 17.8 µM | UACC-62 26.9 µM | UO-31 14.2 µM | XF498 38.4 µM
active: HCC 2998 < 0.01 µM

CC(C)=CC(=O)Oc1ccc([N+](=O)[O-])cc1
inactive: 786-0 > 100 µM | A498 > 100 µM | A549 > 100 µM | ACHN > 100 µM | CAKI-1 20.7 µM | CCRF-CEM > 100 µM | COLO 205 > 100 µM | DLD-1 > 100 µM | DMS-114 > 100 µM | DMS-273 > 100 µM | EKVX > 100 µM | HCC 2998 > 100 µM | HCT-116 > 100 µM | HL-60 24.7 µM | HOP-18 > 100 µM | HOP-62 > 100 µM | HOP-92 > 100 µM | HT-29 > 100 µM | IGROV-1 > 100 µM | K562 > 100 µM | KM-20L2 > 100 µM | KM12 38.3 µM | LXFL 529 > 100 µM | M14 > 100 µM | M19-MEL > 100 µM | MOLT-4 > 100 µM | Malme-3M > 100 µM | NCI-H226 > 100 µM | NCI-H23 > 100 µM | NCI-H460 > 100 µM | NCI-H522 2.18 µM | OVCAR-3 > 100 µM | OVCAR-4 > 100 µM | OVCAR-5 > 100 µM | OVCAR-8 > 100 µM | RPMI-8226 > 100 µM | RXF 393 > 100 µM | SF-268 > 100 µM | SF-295 > 100 µM | SF-539 > 100 µM | SK-MEL-2 > 100 µM | SK-MEL-5 > 100 µM | SK-OV-3 > 100 µM | SN12C > 100 µM | SNB-19 > 100 µM | SNB-75 > 100 µM | SNB-78 > 100 µM | SR > 100 µM | SW-620 > 100 µM | TK-10 > 100 µM | U-251 > 100 µM | UACC-257 > 100 µM | UACC-62 > 100 µM | UO-31 > 100 µM | XF498 > 100 µM
> 100 µM: HCT-15

CCOc1cc[n+]([C-](C#N)C#N)cc1
inactive: 786-0 > 100 µM | A498 > 100 µM | A549 > 100 µM | CAKI-1 > 100 µM | CCRF-CEM > 100 µM | COLO 205 > 100 µM | DLD-1 > 100 µM | DMS-114 > 100 µM | DMS-273 > 100 µM | EKVX > 100 µM | HCC 2998 > 100 µM | HCT-116 > 100 µM | HL-60 > 100 µM | HOP-62 > 100 µM | HOP-92 > 100 µM | HT-29 > 100 µM | IGROV-1 > 100 µM | K562 > 100 µM | KM-20L2 > 100 µM | KM12 > 100 µM | LOX IMVI > 100 µM | LXFL 529 > 100 µM | M14 > 100 µM | M19-MEL > 100 µM | MOLT-4 > 100 µM | Malme-3M > 100 µM | NCI-H226 > 100 µM | NCI-H23 > 100 µM | NCI-H460 > 100 µM | NCI-H522 > 100 µM | OVCAR-3 > 100 µM | OVCAR-4 > 100 µM | OVCAR-5 > 100 µM | OVCAR-8 > 100 µM | RPMI-8226 > 100 µM | RXF 393 > 100 µM | RXF 631 > 100 µM | SF-268 > 100 µM | SF-295 > 100 µM | SF-539 > 100 µM | SK-MEL-5 > 100 µM | SK-OV-3 > 100 µM | SN12C > 100 µM | SNB-19 > 100 µM | SNB-75 > 100 µM | SNB-78 > 100 µM | SR > 100 µM | SW-620 > 100 µM | TK-10 > 100 µM | U-251 > 100 µM | UACC-257 > 100 µM | UACC-62 > 100 µM | UO-31 > 100 µM | XF498 > 100 µM
> 100 µM: HCT-15

CCOC(=O)C1Oc2ccc([N+](=O)[O-])c3c2C1(O)CCC3 (stereo not drawn)
> 100 µM: HCT-15
inactive: 786-0 > 100 µM | A498 56.2 µM | A549 > 100 µM | ACHN > 100 µM | CCRF-CEM > 100 µM | COLO 205 > 100 µM | DLD-1 > 100 µM | DMS-114 > 100 µM | DMS-273 > 100 µM | EKVX > 100 µM | HCC 2998 > 100 µM | HL-60 > 100 µM | HOP-62 > 100 µM | HOP-92 > 100 µM | HT-29 > 100 µM | IGROV-1 > 100 µM | K562 > 100 µM | KM12 > 100 µM | LOX IMVI > 100 µM | LXFL 529 > 100 µM | M14 > 100 µM | M19-MEL > 100 µM | MOLT-4 > 100 µM | Malme-3M > 100 µM | NCI-H226 > 100 µM | NCI-H23 > 100 µM | NCI-H460 33.4 µM | NCI-H522 > 100 µM | OVCAR-3 > 100 µM | OVCAR-4 > 100 µM | OVCAR-5 > 100 µM | OVCAR-8 > 100 µM | RPMI-8226 > 100 µM | RXF 393 > 100 µM | RXF 631 > 100 µM | SF-268 > 100 µM | SF-295 > 100 µM | SF-539 > 100 µM | SK-MEL-28 > 100 µM | SK-MEL-2 > 100 µM | SK-MEL-5 > 100 µM | SK-OV-3 > 100 µM | SN12C > 100 µM | SNB-19 > 100 µM | SNB-75 > 100 µM | SNB-78 > 100 µM | SR > 100 µM | SW-620 > 100 µM | TK-10 > 100 µM | U-251 > 100 µM | UACC-257 > 100 µM | UACC-62 > 100 µM | UO-31 47.2 µM

CNS(=O)(=O)NN(C)S(=O)(=O)c1ccc(OC)cc1
inactive: 786-0 > 100 µM | A498 > 100 µM | A549 > 100 µM | ACHN > 100 µM | CAKI-1 > 100 µM | CCRF-CEM > 100 µM | COLO 205 > 100 µM | DLD-1 > 100 µM | DMS-114 > 100 µM | DMS-273 > 100 µM | EKVX > 100 µM | HCC 2998 > 100 µM | HCT-116 > 100 µM | HL-60 > 100 µM | HOP-62 > 100 µM | HT-29 > 100 µM | IGROV-1 > 100 µM | K562 > 100 µM | KM-20L2 > 100 µM | KM12 > 100 µM | LOX IMVI 91.8 µM | LXFL 529 > 100 µM | M14 > 100 µM | M19-MEL > 100 µM | MOLT-4 > 100 µM | Malme-3M > 100 µM | NCI-H226 > 100 µM | NCI-H23 > 100 µM | NCI-H522 > 100 µM | OVCAR-4 > 100 µM | OVCAR-8 > 100 µM | RPMI-8226 > 100 µM | RXF 393 31 µM | RXF 631 > 100 µM | SF-268 > 100 µM | SF-295 > 100 µM | SF-539 > 100 µM | SK-MEL-2 > 100 µM | SK-MEL-5 > 100 µM | SN12C > 100 µM | SNB-19 > 100 µM | SNB-75 > 100 µM | SR > 100 µM | SW-620 > 100 µM | TK-10 > 100 µM | U-251 > 100 µM | UACC-257 > 100 µM | UACC-62 > 100 µM | UO-31 > 100 µM | XF498 > 100 µM
> 100 µM: HCT-15

Source: ChEMBL document CHEMBL1201862, “PubChem BioAssay data set” (2004)
